From PubChem BioAssay AID1996 come the findings set out here.

Converted amounts (≈) assume the structure as drawn. A value given as a limit tells only on which side of the number the result lay.

Usually solubility (kinetic) stands for the concentration staying in solution when a stock, usually in DMSO, is diluted into the medium.

For this data set the following is noted: buffer; pH 7.4; 200.0 µM.
Take `O=C(COC(=O)c1ccc(F)cc1F)Nc1ncccn1`: the kinetic solubility was over 44 µg/mL.
For the molecule `COc1ccc(-c2cc(=O)oc(-c3cccc(C)c3)n2)cc1`, the kinetic solubility was found to be 1.1 µg/mL (≈ 3.75 µM).
Consider `O=C(CC1SC(N2CCOCC2)=NC1=O)Nc1ccc(Cl)c(C(F)(F)F)c1` (stereo not drawn), for which the solubility (kinetic) is 4.4 µg/mL (≈ 10.4 µM).
Molecule `O=C(Cc1cccc2ccccc12)Nc1ccc(O)cc1C(=O)O` displayed a kinetic solubility of over 48.2 µg/mL.
`O=C(CN1CCN(Cc2cccc(F)c2)CC1)NCc1ccccc1` showed a kinetic solubility of 43.1 µg/mL (≈ 126 µM).
In turn, `CC(C)CCNC(=O)Cc1csc(-c2ccccc2)n1` came in with a solubility (kinetic) of 41.4 µg/mL (≈ 144 µM).
To `CC1CCCCC12NC(=O)N(CC(=O)NCCc1ccccc1)C2=O` (stereo not drawn) belongs over 51.5 µg/mL; to `O=[N+]([O-])c1cccnc1Oc1ccc(C2SCCS2)cc1`, under 0.3 µg/mL.
To `O=C(NC1CC1)C1CC(=O)N(c2ccc(F)cc2)C1` (stereo not drawn) belongs 37.6 µg/mL (≈ 143 µM); to `CC(C(=O)Nc1ccc(C#N)cc1)N(C)CC(=O)Nc1cccc(F)c1` (stereo not drawn), 5.9 µg/mL (≈ 16.6 µM).
Molecule `CCCn1c(=O)c2c(nc3n2CCS3)n(C)c1=O` gave a solubility (kinetic) of over 39.9 µg/mL.
To `Cc1onc(-c2c(F)cccc2Cl)c1C(=O)N=C(N)N1CCCC1` belongs 5 µg/mL (≈ 14.3 µM); to `COc1ccc(C(C)=O)cc1COC(=O)c1cccnc1SC`, under 0.7 µg/mL.
Consider `Cc1ccc(C(=O)NCCN2CCN(C(=O)c3ccc(C)c(C)c3)CC2)cc1C`, for which the kinetic solubility was 53.1 µg/mL (≈ 135 µM).
With `C=C(C)CNC(=O)c1ccc2nc(Cc3ccc(OC)cc3)oc2c1`, the kinetic solubility stood at 40.5 µg/mL (≈ 120 µM).
Turning to `Cn1c(Cl)c(/C=N/OC(=O)C2CC2)c2ccccc21`, the solubility (kinetic) is 2.7 µg/mL (≈ 9.76 µM).
Consider `COc1ccc(NC(=O)c2cc3ccccc3o2)cc1OC`, for which the solubility (kinetic) came out at 7.9 µg/mL (≈ 26.6 µM).
Molecule `CN(c1ccccc1)S(=O)(=O)c1cccc(C(=O)OCC(=O)NCc2ccccc2)c1` registered a solubility (kinetic) of 11.1 µg/mL (≈ 25.3 µM).
The same measure for `CSCCC(NC(=O)COc1ccccc1)C(=O)N1CCCC(C)C1` (stereo not drawn): over 54.7 µg/mL; for `Cc1ccc2nc(-c3ccc(-c4ccccn4)s3)cn2c1`: 3.2 µg/mL (≈ 11 µM).
To `COc1ccc(N(C=O)C(C(=O)Nc2c(C)cccc2C)c2ccccc2)cc1` (stereo not drawn) belongs 1.6 µg/mL (≈ 4.12 µM); to `O=C(Nc1ccc(Cl)cn1)c1ccc(Oc2ccccc2)cc1`, under 0.3 µg/mL.
On to `CCn1c(=O)c(C(=O)Nc2ccc(C)cc2C)c(O)c2ccccc21`, for which the solubility (kinetic) is under 0.4 µg/mL.
For `N#Cc1c(NC(=O)CCC(=O)O)sc2c1CCCCC2`, the kinetic solubility is over 43.9 µg/mL.
In the case of `Cc1cc(C)cc(OCC(=O)N2CCN(c3ncccn3)CC2)c1`, the solubility (kinetic) was over 49 µg/mL.
For `C=CCc1cc(/C=C2/NC(=O)N(CC(=O)OC)C2=O)cc(OC)c1O`, the kinetic solubility was determined as 11.9 µg/mL (≈ 34.4 µM).
As to `COC(=O)C(Cc1ccc(O)cc1)NC(=O)c1ccc2c(c1)OCCO2` (stereo not drawn), the solubility (kinetic) is over 53.6 µg/mL.
The molecule `COc1ccc(Cl)cc1S(=O)(=O)n1ccnc1` displayed a kinetic solubility of over 40.9 µg/mL.
Regarding `O=C(O)c1cccc(S(=O)(=O)Nc2ccc(-c3ccccc3)cc2)c1`, the solubility (kinetic) is over 53 µg/mL.
To `CC(Sc1ncccn1)C(=O)Nc1ccc2c(c1)OCO2` (stereo not drawn) belongs 45 µg/mL (≈ 148 µM).
`S=C(NCCCN1CCOCC1)N1CCOCC1`: the solubility (kinetic) was over 41 µg/mL.
`Cc1cc2cc(C#N)c(SCC(=O)Nc3nonc3C)nc2cc1C`: the kinetic solubility worked out at 0.3 µg/mL (≈ 0.849 µM).
The same measure for `Cc1cccc2c1NC(=O)C2=Nc1ccc(Cl)cc1`: 4.7 µg/mL (≈ 17.4 µM); for `CC1(C)CC(=O)C=C(Nc2ccc(C(=O)O)c(O)c2)C1`: over 41.3 µg/mL; for `COc1cccc(CN2C(=O)c3ccccc3S2(=O)=O)c1`: 30 µg/mL (≈ 98.9 µM).
Molecule `Cc1cnc(=O)[nH]c1SCc1cccc(C(F)(F)F)c1` showed a kinetic solubility of 8.3 µg/mL (≈ 27.6 µM).
Consider `Cl.N=c1ccn(Cc2c(Cl)cccc2Cl)cc1`, for which the solubility (kinetic) is over 43.4 µg/mL.
To `Clc1ccc(-c2cc(CN3CCOCC3)no2)cc1` belongs over 41.8 µg/mL; to `COc1ccccc1C(=O)NCCNc1ccc([N+](=O)[O-])cc1Cl`, 0.7 µg/mL (≈ 2 µM).
With `O=C(CSc1nncs1)NCc1ccc(F)cc1`, the solubility (kinetic) is over 42.5 µg/mL.
In turn, `CCOC(=O)c1ccc(S(=O)(=O)NC2CC2)cc1` had a solubility (kinetic) of 32.4 µg/mL (≈ 120 µM).
In the case of `CC1CCC(NC(=O)C(Cc2ccccc2)n2cccc2)CC1` (stereo not drawn), the solubility (kinetic) amounted to 19.2 µg/mL (≈ 61.8 µM).
For `Cc1ccc(C(=O)NCCCNc2ccccc2[N+](=O)[O-])cc1`, the kinetic solubility is 3.4 µg/mL (≈ 10.9 µM).
Regarding `Cc1ccc(OCCC(=O)OCC(=O)Nc2cc(C)cc(C)c2)cc1`, the solubility (kinetic) was found to be 4.3 µg/mL (≈ 12.6 µM).
For `Cc1cc(C(=O)COc2cc(F)ccc2[N+](=O)[O-])c(C)n1CC1CCCO1` (stereo not drawn), the kinetic solubility turned out to be 34.4 µg/mL (≈ 91.4 µM).
In the case of `COc1ccc(NC(=O)NC2(C(=O)N3CCOCC3)CCCCC2)cc1`, the solubility (kinetic) turned out to be 43 µg/mL (≈ 119 µM).
Consider `O=C(c1ccc(Oc2ccc([N+](=O)[O-])cc2)cc1)N1CCCCCC1`, for which the solubility (kinetic) came to 34.4 µg/mL (≈ 101 µM).
Regarding `CCOc1ccc(NC(=S)Nc2cccnc2)cc1`, the kinetic solubility amounted to 33.3 µg/mL (≈ 122 µM).
The molecule `CCc1ccccc1N1C(=O)CC(Sc2nccc(C)n2)C1=O` (stereo not drawn) yielded a kinetic solubility of 47.3 µg/mL (≈ 144 µM).
For `O=C(CN1CCCC1)Nc1ccc(OCc2ccccc2)cc1`, the kinetic solubility was over 46.6 µg/mL.
The molecule `CCC(C)[C@H](NC(=O)Nc1ccccc1F)C(=O)O` (stereo partly drawn) gave a kinetic solubility of over 40.2 µg/mL.
As to `COc1ccc(S(=O)(=O)NCC(=O)NC2CC2)cc1OC`, the kinetic solubility is over 47.2 µg/mL.
Molecule `CCOc1cc(/C=C2\NC(=O)NC2=O)cc([N+](=O)[O-])c1O` yielded a solubility (kinetic) of over 44 µg/mL.
The same measure for `COc1ccccc1NC(=O)c1cc(C)oc1C`: over 36.8 µg/mL.
For `COc1ccc(N2CC(C(=O)NCc3ccco3)CC2=O)cc1` (stereo not drawn), the kinetic solubility came to 32.2 µg/mL (≈ 102 µM).
The molecule `Cn1c(=O)n(C)c2cc(NC(=O)COc3ccc(F)cc3)ccc21` came in with a solubility (kinetic) of 40.7 µg/mL (≈ 124 µM).
In the case of `O=C1CN(C(=O)COC(=O)c2ccc(Br)o2)c2ccccc2N1`, the solubility (kinetic) amounted to 9.5 µg/mL (≈ 25.1 µM).
Take `CCOC(=O)CSc1ccc2ccccc2n1`: the solubility (kinetic) was 19.5 µg/mL (≈ 78.8 µM).
In turn, `O=C(CSc1ccccn1)Nc1ccc(F)c([N+](=O)[O-])c1` yielded a kinetic solubility of 43.5 µg/mL (≈ 142 µM).
In turn, `COc1ccc(CN2CCOCCOCCOCC2)cc1` yielded a kinetic solubility of 39.1 µg/mL (≈ 132 µM).
For `Cc1nc([N+](=O)[O-])cn1CC(=O)Nc1ccc(Cl)cc1`, the solubility (kinetic) amounted to 6.1 µg/mL (≈ 20.7 µM).
To `Cl.Fc1ccc(Nc2ncnc3ccccc23)cc1` belongs 36.8 µg/mL.
Turning to `N#Cc1cccc(NC(=O)CSc2cccc[n+]2[O-])c1`, the kinetic solubility was over 42.8 µg/mL.
Regarding `O=C(NCCN1CCOCC1)C(Sc1ccccc1)c1ccccc1` (stereo not drawn), the kinetic solubility was over 53.5 µg/mL.
`CN(C(=O)c1ccccc1)C1c2c(ccc3ccccc23)OCC1CO` (stereo not drawn) came in with a kinetic solubility of under 0.7 µg/mL.
`Cc1cc(C)c(C)c(S(=O)(=O)N2CCCN(C)CC2)c1C` had a solubility (kinetic) of over 46.6 µg/mL.
Molecule `COc1ccc(-c2cnc(N)nc2-c2ccc(OC)cc2)cc1` registered a kinetic solubility of 2.8 µg/mL (≈ 9.11 µM).
As to `COc1ccc(Nc2nc3cc(C)ccc3cc2C#N)cc1`, the solubility (kinetic) was under 0.2 µg/mL.
For `O=C(Nc1ccccc1F)Nc1cccnc1Cl`, the kinetic solubility was 7.8 µg/mL (≈ 29.4 µM).
On to `CC(C)CC(=O)NC(=S)Nc1ccc(CN2CCOCC2)cc1`, for which the kinetic solubility was over 50.3 µg/mL.
To `Cc1cccc(NC(=O)CCc2ccccc2)c1` belongs 35 µg/mL (≈ 146 µM).
The molecule `Cc1ccc(-c2sc(-c3cccnc3)nc2CC(=O)O)cc1` displayed a solubility (kinetic) of over 46.6 µg/mL.
Regarding `CSc1nnc(C)c(=O)n1COC(=O)/C=C/c1ccccc1`, the solubility (kinetic) is over 47.6 µg/mL.
Regarding `CCOC(=O)C1=C(C)NC(C)=C(C(=O)OCC)C1c1ccco1`, the solubility (kinetic) is 8.8 µg/mL (≈ 27.6 µM).
With `COc1ccc(NC(=O)COc2ccccc2)cc1Cl`, the solubility (kinetic) was 34 µg/mL (≈ 117 µM).
The same measure for `Nc1ccc(C(=O)[O-])cc1.O.[Na+]`: over 26.6 µg/mL; for `CC(=O)N/C(N)=N/c1nc(=O)c2ccccc2s1`: 3.5 µg/mL (≈ 13.3 µM).
To `Cc1cccc(C)c1NC(=O)C[n+]1cc(-c2ccccc2)n2c1CCC2.[Cl-]` belongs over 57.3 µg/mL; to `CC(=Nc1ccccc1C(F)(F)F)c1ccncc1`, under 0.3 µg/mL; to `CN1CCN(C(=O)/C=C/c2cccc(Cl)c2)CC1`, over 39.7 µg/mL.
Molecule `CCOc1ccccc1NC(=O)c1ccc2c(c1)C(=O)N(CC(C)C)C2=O` yielded a solubility (kinetic) of under 0.4 µg/mL.
In turn, `Cc1ccc(NC(=O)CN2CCOCC2)c(Br)c1` came in with a kinetic solubility of over 47 µg/mL.
In the case of `COc1ccc(C(=O)C2CCCN(C(=O)C3=CCCC3)C2)cc1OC` (stereo not drawn), the solubility (kinetic) was over 51.5 µg/mL.
In the case of `COc1ccc(C(C)NC(=O)Nc2ccc(C(C)=O)cc2)cc1OC` (stereo not drawn), the kinetic solubility is 47 µg/mL (≈ 137 µM).
Consider `N#C/C(=C\N1CCCCC1)S(=O)(=O)c1ccc(Cl)cc1`, for which the kinetic solubility is 8.2 µg/mL (≈ 26.4 µM).
Molecule `Cc1cc(N2C(=O)Cc3ccccc3C2=O)ccc1C(C)C` had a solubility (kinetic) of 35 µg/mL (≈ 119 µM).
With `CCc1ccc(OCC(=O)OCC(=O)NC2CCCC(C)C2C)cc1` (stereo not drawn), the solubility (kinetic) came out at 9.2 µg/mL (≈ 26.5 µM).
To `Cc1ccnc(SCC(=O)c2cccs2)n1` belongs over 37.5 µg/mL; to `CCc1nc2cc3sc(CC)nc3cc2s1`, 0.6 µg/mL (≈ 2.42 µM).
With `COC(=O)C1=C(N)Oc2cc(C)[nH]c(=O)c2C1c1ccc(Cl)cc1` (stereo not drawn), the kinetic solubility worked out at 1.7 µg/mL (≈ 4.9 µM).
Molecule `CCC(C(=O)OC(C)C(=O)Nc1ccc(Cl)cn1)c1ccccc1` (stereo not drawn) had a solubility (kinetic) of 16.9 µg/mL (≈ 48.7 µM).
To `COc1ccc(-n2c(C)nc3ccccc3c2=O)c([N+](=O)[O-])c1` belongs 39.4 µg/mL (≈ 127 µM); to `O=C(O)c1cc(S(=O)(=O)N2CC3CC3C2C(=O)O)c(Cl)cc1Cl` (stereo not drawn), 52.3 µg/mL (≈ 138 µM); to `CCOCCOc1cccc(C(=O)NC(C)c2ccc3ccccc3c2)c1` (stereo not drawn), 1.6 µg/mL (≈ 4.4 µM).
`COc1cc(C)ccc1OCC(=O)NC1CCCCCC1` showed a kinetic solubility of 40.5 µg/mL (≈ 139 µM).
Turning to `O=C(COc1cccnc1[N+](=O)[O-])Nc1c(Cl)cccc1Cl`, the solubility (kinetic) was found to be 23.2 µg/mL (≈ 67.8 µM).
`CCOc1cc(C=O)ccc1OCc1cc(=O)n2cc(C)ccc2n1` registered a solubility (kinetic) of 4.4 µg/mL (≈ 13 µM).
`O=C(CN1CCCCC1)Nc1scc2c1c(=O)oc1ccccc12` had a kinetic solubility of under 0.4 µg/mL.
`O=C(OCC(=O)N1CCCCC1)c1c[nH]c2ccccc12`: the kinetic solubility is over 42.9 µg/mL.
`CCC(=O)N(CCc1ccccc1)Cc1cc2cccc(C)c2[nH]c1=O` came in with a kinetic solubility of 2.3 µg/mL (≈ 6.6 µM).
`CCCC(=O)NC(c1ccccc1)c1c(O)ccc2ccccc12` (stereo not drawn) had a solubility (kinetic) of under 0.7 µg/mL.
With `Cc1ccc(C)c(NC(=O)CN(C)C(=O)c2sccc2C)c1`, the kinetic solubility was over 47.5 µg/mL.
`COc1ccccc1NC(=O)COc1ccccc1C(=O)Nc1ccccc1` returned a kinetic solubility of 5.9 µg/mL (≈ 15.7 µM).
